This passage reports Rotarod performance results from patent US9604945B2, “Sydnonimines-specific dopamine reuptake inhibitors and their use in treating dopamine related disorders” (priority 2007, dated 2017).

In the data set the test system is male mice. The data set can be described thus: Accelerating rotarod assay. The class given is in vivo, mouse. As to conditions: 10 and 90 mg/kg, FIG. 11. On the procedure: Rotarod assays were also performed using the experimental protocol and design set forth below. Individually housed male mice aged 8-12 weeks were used for this experiment. Mice were maintained on a reverse L:D/12 p.m.: 12 a.m. cycle in a barrier facility with food and water available ad libitum. Testing occurred towards the end of the light cycle between 6-12 a.m. Mice were acclimated to the testing room for at least 30 minutes.
The assay was carried out using four EzRod test chambers kept in a laminar hood for testing. For the accelerating rotarod paradigm, mice were given 10 trials with the maximum duration of 3 minute and a 30-second intertrial interral (ITI). Each mouse was placed on the EZRod machines and the latency to fall was recorded for all trials. If the mouse fell or 3 minutes elapsed, the mouse was left in the bottom of the EzRod test chamber for 30 seconds before starting the next trial.
The latency to fall was compared between the two groups by analysis of variance (ANOVA) with repeated measures.
(The rotarod test checks motor coordination on a turning rod.)

For the compound `Cc1ccc(C[n+]2[cH-]/c(=N\C(=O)Nc3ccccc3)on2)cc1` [Example 3, N-phenylcarbamoyl-3-(p-methyl-benzyl)-sydnonimine], the Rotarod performance result is given as “did not affect rotarod performance”.
